# Patent EP0308782A2, “Antimycotic preparations” (BAYER AG, priority 1987, dated 1989)
# Experiments:
# Trichophyton mentagr. = assay: Antimycotic in-vitro activity, serial dilution test (MIC); type: cell-based; conditions: Sabouraud's milieu d'epreuve, 28 °C to 37 °C, 96 h incubation, inoculum 5 x 10³ to 10⁴ germs/ml; for MIC: Trichophyton, read-out: MHK-Werte Trichophyton mentagr.
# Description: (§1) Die in-vitro-Prüfungen wurden im Reihenverdünnungstest mit Keiminokula von durchschnittlich 5 x 10³ bis 10⁴ Keimen/ml Substrat durchgeführt. Als Nährmedium dienten • a) für Dermatophyten und Schimmelpilze: Sabouraud's milieu d'epreuve • b) für Hefen: Fleischextrakt-Traubenzucker-Bouillon.
# (§2) Die Bebrütungstemperatur betrug 28 °C bis 37 °C, die Bebrütungsdauer lag bei 24 bis 96 Stunden bei Hefen und 96 Stunden bei Dermatophyten und Schimmelpilzen.
# Aspergillus fumigatus = assay: as above; type: cell-based; conditions: Sabouraud's milieu d'epreuve, 28 °C to 37 °C, 96 h incubation, inoculum 5 x 10³ to 10⁴ germs/ml; for MIC: Aspergillus fumigatus, read-out: MHK-Werte Aspergillus fumigatus
# Description: as §1, §2
# Microsporum canis = assay: as above; type: cell-based; conditions: Sabouraud's milieu d'epreuve, 28 °C to 37 °C, 96 h incubation, inoculum 5 x 10³ to 10⁴ germs/ml; for MIC: Microsporum canis, 96 h, read-out: MHK-Werte Microsporum canis
# Description: as §1, §2
# Candida albicans = assay: as above; type: cell-based; conditions: meat extract-glucose broth, 28 °C to 37 °C, 24 to 96 h incubation, inoculum 5 x 10³ to 10⁴ germs/ml; for MIC: Candida albicans, read-out: MHK-Werte Candida albicans
# Description: as §1, §2
# Torulopsis glabrata = assay: as above; type: cell-based; conditions: meat extract-glucose broth, 28 °C to 37 °C, 24 to 96 h incubation, inoculum 5 x 10³ to 10⁴ germs/ml; for MIC: Nakaseomyces glabratus, read-out: MHK-Werte Torulopsis glabrata
# Description: as §1, §2
# [1] = test system: Dermatophyten, Schimmelpilze, Hefen; assay: Antimycotic in-vitro activity, serial dilution test, overall spectrum; type: cell-based; conditions: statement in words on the in-vitro serial dilution test
# Description: as §1, §2
# Candida-Zellen = assay: Antimycotic in-vivo activity (oral) in mouse candidosis; set-up: species or system Mäuse vom Typ SPF-CF₁; conditions: for Antimykotische in-vivo-Wirksamkeit (oral) bei Mäusecandidose: mice infected i.v. with 1 - 2 x 10⁶ Candida cells, 10 - 100 mg/kg oral 1 h before and 7 h after infection, survivors on day 6 p.i.; for antimykotische Wirkung: statement in words, mouse candidosis, oral 10 - 100 mg/kg
# Description: Mäuse vom Typ SPF-CF₁ wurden intravenös mit 1 - 2 x 10⁶ logarithmisch wachsenden Candida-Zellen, die in physiologischer Kochsalzlösung suspendiert werden, infiziert. Eine Stunde vor und sieben Stunden nach der Infektion werden die Tiere mit jeweils 10 - 100 mg/kg Körpergewicht der Präparate oral behandelt.
# Unbehandelte Tiere starben 3 bis 6 Tage post infektionem. Die Überlebensrate am 6.Tag post infektionem betrug bei unbehandelten Kontrolltieren etwa 5 %.
Structure (SMILES),MIC (Trichophyton mentagr.),MIC (Aspergillus fumigatus),MIC (Microsporum canis),MIC (Candida albicans),MIC (Torulopsis glabrata),antimykotisches Wirkungsspektrum [1],Antimykotische in-vivo-Wirksamkeit (oral) bei Mäusecandidose (Candida-Zellen),antimykotische Wirkung (Candida-Zellen),MHK-Werte Trichophyton mentagr. (Trichophyton mentagr.),MHK-Werte Aspergillus fumigatus (Aspergillus fumigatus),MHK-Werte Microsporum canis (Microsporum canis),MHK-Werte Candida albicans (Candida albicans),MHK-Werte Torulopsis glabrata (Torulopsis glabrata)
CC(C)(n1cccn1)C(O)(CCc1ccc(Cl)cc1F)Cn1cncn1 (centres unmarked) [Beispiel 26],< 1 µg/mL,2 µg/mL,2 µg/mL,8 µg/mL,32 µg/mL,–,–,–,–,–,–,–,–
CC(C)(n1cncn1)C(O)(CSc1ccc(Cl)cc1)Cn1cncn1 (centres unmarked) [Beispiel 9],2 µg/mL,64 µg/mL,–,< 1 µg/mL,32 µg/mL,gutes antimykotisches Wirkungsspektrum,–,–,–,–,–,–,–
CC(C)(n1cccn1)C(O)(CCc1ccccc1F)Cn1cncn1 (centres unmarked) [Beispiel 19],2 µg/mL,16 µg/mL,–,16 µg/mL,8 µg/mL,–,–,–,–,–,–,–,–
CC(C)(n1cccn1)C(O)(CCc1ccc(Cl)cc1Cl)Cn1cncn1 (centres unmarked) [Beispiel 23],2 µg/mL,8 µg/mL,–,8 µg/mL,2 µg/mL,–,–,–,–,–,–,–,–
CC(C)(n1cncn1)C(O)(COc1ccc(Cl)cc1)Cn1cncn1 (centres unmarked) [Beispiel 10],8 µg/mL,> 64 µg/mL,–,2 µg/mL,> 64 µg/mL,gutes antimykotisches Wirkungsspektrum,+++++ (sehr gute Wirkung = 90 % Überlebende am 6.Tag.p.i.),gute antimykotische Wirkung,–,–,–,–,–
CC(C)(n1cccn1)C(O)(CCc1ccc(F)cc1)Cn1cncn1 (centres unmarked) [Beispiel 24],< 1 µg/mL,8 µg/mL,4 µg/mL,< 1 µg/mL,4 µg/mL,–,–,–,–,–,–,–,–
Cc1cc(C)n(C(C)(C)C(O)(CCc2ccc(F)cc2)Cn2cncn2)n1 (centres unmarked) [Beispiel 25],2 µg/mL,4 µg/mL,–,16 µg/mL,> 64 µg/mL,–,–,–,–,–,–,–,–
Cc1ccc(OCC(O)(Cn2cncn2)C(C)(C)n2cncn2)c(Cl)c1 (centres unmarked) [Beispiel 13],2 µg/mL,> 64 µg/mL,–,32 µg/mL,> 64 µg/mL,gutes antimykotisches Wirkungsspektrum,–,–,–,–,–,–,–
CC(C)(n1cccn1)C(O)(CCc1ccc(Cl)cc1)Cn1cncn1 (centres unmarked) [Beispiel 18],–,–,–,–,–,–,–,–,<1 µg/ml Nährmedium,2 µg/ml Nährmedium,4 µg/ml Nährmedium,8 µg/ml Nährmedium,2 µg/ml Nährmedium
CC(C)(Cn1cncn1)C(O)(CCc1ccc(-c2ccccc2)cc1)Cn1cncn1 (centres unmarked) [Beispiel 5],2 µg/mL,8 µg/mL,–,8 µg/mL,32 µg/mL,gutes antimykotisches Wirkungsspektrum,+++ (Wirkung = 60 % Überlebende am 6.Tag.p.i.),gute antimykotische Wirkung,–,–,–,–,–
"CC(C)(n1cccn1)C(O)(CCc1ccc(Cl)cc1)Cn1cncn1 (centres unmarked) [Beispiel 1, 5-(4-Chlorphenyl)-2-methyl-2-(pyrazol-1-yl)-3-(1,2,4-triazol-methyl)-pentan-3-ol]",–,–,–,–,–,gutes antimykotisches Wirkungsspektrum,–,–,<1 µg/ml Nährmedium,2 µg/ml Nährmedium,2 µg/ml Nährmedium,2 µg/ml Nährmedium,2 µg/ml Nährmedium
"CC(C)(Cn1cncn1)C(O)(CCc1ccc2ccccc2c1)Cn1cncn1 (centres unmarked) [Beispiel 2, 4,4-Dimethyl-1-(2-naphthyl)-5-(1,2,4-triazol-1-yl)-3-(1,2,4-triazol-1-yl-methyl)-3-pentanol]",4 µg/mL,> 64 µg/mL,–,32 µg/mL,> 64 µg/mL,gutes antimykotisches Wirkungsspektrum,–,–,–,–,–,–,–
"OC(Cn1cncn1)(Cn1cncn1)c1ccccc1 [(A), reference compound]",64 µg/mL,> 64 µg/mL,–,64 µg/mL,> 64 µg/mL,–,–,–,–,–,–,–,–
CC(C)(n1cccn1)C(O)(CCc1ccc(F)cc1F)Cn1cncn1 (centres unmarked) [Beispiel 22],2 µg/mL,16 µg/mL,–,2 µg/mL,8 µg/mL,–,–,–,–,–,–,–,–
CC(C)(n1cccn1)C(O)(CCc1ccc(F)cc1Cl)Cn1cncn1 (centres unmarked) [Beispiel 27],4 µg/mL,32 µg/mL,–,8 µg/mL,16 µg/mL,–,–,–,–,–,–,–,–
CC(C)(n1cccn1)C(O)(COc1ccc(Cl)cc1)Cn1cncn1 (centres unmarked) [Beispiel 28],< 1 µg/mL,16 µg/mL,8 µg/mL,32 µg/mL,16 µg/mL,–,–,–,–,–,–,–,–
CC(C)(n1cccn1)C(O)(CCc1ccc(OC(F)(F)F)cc1)Cn1cncn1 (centres unmarked) [Beispiel 20],< 1 µg/mL,< 1 µg/mL,2 µg/mL,4 µg/mL,4 µg/mL,–,–,–,–,–,–,–,–
CC(C)(n1cncn1)C(O)(COc1ccc(Cl)cc1Cl)Cn1cncn1 (centres unmarked) [Beispiel 11],2 µg/mL,> 64 µg/mL,–,8 µg/mL,> 64 µg/mL,gutes antimykotisches Wirkungsspektrum,–,–,–,–,–,–,–
CC(C)(n1cncn1)C(O)(CCc1ccc(Cl)cc1)Cn1cncn1 (centres unmarked) [Beispiel 29],< 1 µg/mL,16 µg/mL,4 µg/mL,< 1 µg/mL,32 µg/mL,–,–,–,–,–,–,–,–
Cc1cc(Cl)ccc1OCC(O)(Cn1cncn1)C(C)(C)n1cncn1 (centres unmarked) [Beispiel 12],4 µg/mL,> 64 µg/mL,–,16 µg/mL,> 64 µg/mL,gutes antimykotisches Wirkungsspektrum,–,–,–,–,–,–,–
Cc1cc(C)n(C(C)(C)C(O)(CCc2ccc(Cl)cc2)Cn2cncn2)n1 (centres unmarked) [Beispiel 21],< 1 µg/mL,2 µg/mL,< 1 µg/mL,8 µg/mL,16 µg/mL,–,–,–,–,–,–,–,–
CC(C)(n1cccn1)C(O)(CCc1ccc(Cl)cc1)Cn1cncn1 (centres unmarked) [Beispiel 17],< 1 µg/mL,2 µg/mL,2 µg/mL,–,–,–,–,–,–,–,–,16 µg/ml Nährmedium,32 µg/ml Nährmedium
CC(C)(n1cncn1)C(O)(C=Cc1ccc(Cl)cc1)Cn1cncn1 (centres unmarked) [Beispiel 8],–,–,–,–,–,–,++++ (gute Wirkung = 80 % Überlebende am 6.Tag.p.i.),gute antimykotische Wirkung,–,–,–,–,–
CC(C)(n1cccn1)C(O)(/C=C/c1ccc(Cl)cc1)Cn1cncn1 (centres unmarked) [Beispiel 7],< 1 µg/mL,4 µg/mL,4 µg/mL,< 1 µg/mL,16 µg/mL,gutes antimykotisches Wirkungsspektrum,–,–,–,–,–,–,–
"CC(C)(n1cncn1)C(O)(Cn1cncn1)c1ccc(Cl)cc1 (centres unmarked) [(B), reference compound]",8 µg/mL,> 64 µg/mL,> 64 µg/mL,> 64 µg/mL,> 64 µg/mL,–,–,–,–,–,–,–,–
